In paper PMC11859928, “Design, Synthesis, and Antiproliferative Activity of Novel Indole/1,2,4-Triazole Hybrids as Tubulin Polymerization Inhibitors” (Pharmaceuticals, 2025):

Key:
Type in all cases: cell-based, human
[1] = tested on: CCRF-CEM; assay: NCI five-dose assay; conditions: Homo sapiens, Leukemia
[2] = tested on: HL-60(TB); assay: NCI five-dose assay; conditions: Leukemia
[3] = tested on: K-562; assay: NCI five-dose assay; conditions: Homo sapiens, K562, K-562, Leukemia
[4] = tested on: MOLT-4; assay: NCI five-dose assay; conditions: MOLT-4, Leukemia
[5] = tested on: RPMI-8226; assay: NCI five-dose assay; conditions: Homo sapiens, RPMI-8226, Leukemia
[6] = tested on: SR; assay: NCI five-dose assay; conditions: Leukemia
[7] = tested on: HOP-92; assay: NCI five-dose assay; conditions: HOP-92, Non-small cell lung cancer
[8] = tested on: SW-620; assay: NCI five-dose assay; conditions: SW-620, Colon cancer
[9] = tested on: SF-539; assay: NCI five-dose assay; conditions: SF-539, CNS cancer
[10] = tested on: LOX IMVI; assay: NCI five-dose assay; conditions: Melanoma
[11] = tested on: MALME-3M; assay: NCI five-dose assay; conditions: Melanoma
[12] = tested on: SK-MEL-2; assay: NCI five-dose assay; conditions: SK-MEL-2, Melanoma
[13] = tested on: UACC-257; assay: NCI five-dose assay; conditions: UACC-257, Melanoma
[14] = tested on: UACC-62; assay: NCI five-dose assay; conditions: UACC-62, Melanoma
[15] = tested on: OVCAR-3; assay: NCI five-dose assay; conditions: OVCAR-3, Ovarian cancer
[16] = tested on: OVCAR-4; assay: NCI five-dose assay; conditions: OVCAR-4, Ovarian cancer
[17] = tested on: OVCAR-5; assay: NCI five-dose assay; conditions: OVCAR-5, Ovarian cancer
[18] = tested on: NCI/ADR-RES; assay: NCI five-dose assay; conditions: Ovarian cancer
[19] = tested on: ACHN; assay: NCI five-dose assay; conditions: Renal cancer
[20] = tested on: CAKI-1; assay: NCI five-dose assay; conditions: CAKI-1, Renal cancer
[21] = tested on: RXF393; assay: NCI five-dose assay; conditions: RXF393, Renal cancer
[22] = tested on: SN12C; assay: NCI five-dose assay; conditions: Renal cancer
[23] = tested on: TK-10; assay: NCI five-dose assay; conditions: TK-10, Renal cancer
[24] = tested on: UO-31; assay: NCI five-dose assay; conditions: UO-31, Renal cancer
[25] = tested on: DU-145; assay: NCI five-dose assay; conditions: DU-145, Prostate cancer
[26] = tested on: MDA-MB-468; assay: NCI five-dose assay; conditions: MDA-MB-468, Breast cancer
[27] = tested on: CNS cancer subpanel; assay: NCI five-dose assay, subpanel mean; conditions: Homo sapiens; average sensitivity of all cell lines of the CNS cancer subpanel; read-out: GI50 Subpanel MID b
[28] = tested on: Renal cancer subpanel; assay: NCI five-dose assay, subpanel mean
[29] = 48 h, read-out: LC50 (the source's name)
[30] = read-out: GI50 Conc. per Cell Lines
[31] = Homo sapiens, 48 h, read-out: LC50 (the source's name)
[32] = Homo sapiens, read-out: GI50 Conc. per Cell Lines

O/N=C(\CSc1nnc(-c2c[nH]c3ccccc23)n1-c1ccccc1)c1ccc(Br)cc1 [Compound 7i, (Z)-2-((5-(1H-Indol-3-yl)-4-phenyl-4H-1,2,4-triazol-3-yl)thio)-1-(4-bromophenyl) Ethanone Oxime]
CC50 [1, 29]: > 100 µM
GI50 [1, 30]: 2.78 µM
CC50 [2, 31]: > 100 µM
GI50 [2, 32]: 1.92 µM
TGI Conc. per Cell Lines [2]: 4.55 µM
CC50 [3, 29]: > 100 µM
GI50 [3, 30]: 2.22 µM
CC50 [4, 31]: > 100 µM
GI50 [4, 32]: 2.09 µM
TGI Conc. per Cell Lines [4]: 4.80 µM
CC50 [5, 29]: > 100 µM
GI50 [5, 30]: 2.45 µM
CC50 [6, 31]: > 100 µM
TGI Conc. per Cell Lines [6]: >100 µM
TGI Conc. per Cell Lines [7]: 24.10 µM
CC50 [7, 31]: > 100 µM
GI50 [7, 32]: 3.66 µM
CC50 [8, 31]: 62.1 µM
GI50 [8, 32]: 3.28 µM
TGI Conc. per Cell Lines [8]: 12.10 µM
CC50 [9, 31]: 38.4 µM
GI50 [9, 32]: 4.04 µM
TGI Conc. per Cell Lines [9]: 14.20 µM
CC50 [10, 31]: 5.69 µM
GI50 [10, 32]: 1.71 µM
TGI Conc. per Cell Lines [10]: 3.12 µM
CC50 [11, 31]: 87 µM
GI50 [11, 32]: 3.22 µM
TGI Conc. per Cell Lines [11]: 14.30 µM
CC50 [12, 31]: 37.5 µM
GI50 [12, 32]: 3.1 µM
TGI Conc. per Cell Lines [12]: 10.4 µM
CC50 [13, 31]: 72.6 µM
GI50 [13, 32]: 3.87 µM
TGI Conc. per Cell Lines [13]: 17.50 µM
CC50 [14, 31]: 7.93 µM
GI50 [14, 32]: 1.77 µM
TGI Conc. per Cell Lines [14]: 3.74 µM
LC50 ([15]; Homo sapiens, 48 h): > 100 µM
GI50 [15, 32]: 4.98 µM
TGI Conc. per Cell Lines [15]: 23.8 µM
GI50 [16, 32]: 2.14 µM
TGI Conc. per Cell Lines [16]: 4.57 µM
LC50 ([17]; Homo sapiens, 48 h): 1.59 µM
GI50 [17, 32]: 2.18 µM
TGI Conc. per Cell Lines [17]: 5.21 µM
LC50 ([18]; Homo sapiens, 48 h): 8.08 µM
GI50 [18, 32]: 1.9 µM
TGI Conc. per Cell Lines [18]: 3.92 µM
LC50 ([19]; Homo sapiens, 48 h): 24.9 µM
GI50 [19, 32]: 2.53 µM
TGI Conc. per Cell Lines [19]: 7.05 µM
TGI Conc. per Cell Lines [20]: 8.10 µM
LC50 ([20]; Homo sapiens, 48 h): 38 µM
GI50 [20, 32]: 2.63 µM
LC50 (concentration killing 50% of cells) ([21]; Homo sapiens, RXF 393, 48 h): 7.65 µM
GI50 ([21]; Homo sapiens, RXF 393, read-out: GI50 Conc. per Cell Lines): 1.75 µM
TGI Conc. per Cell Lines [21]: 3.65 µM
CC50 [22, 31]: 30.1 µM
GI50 [22, 32]: 2.52 µM
TGI Conc. per Cell Lines [22]: 7.97 µM
CC50 [23, 31]: 30.4 µM
GI50 [23, 32]: 2.8 µM
TGI Conc. per Cell Lines [23]: 7.63 µM
CC50 [24, 31]: 34.3 µM
GI50 [24, 32]: 2.29 µM
TGI Conc. per Cell Lines [24]: 7.81 µM
TGI Conc. per Cell Lines [25]: 4.08 µM
GI50 [25, 32]: 2.05 µM
LC50 ([26]; Homo sapiens, 48 h): 6.32 µM
GI50 [26, 32]: 1.72 µM
TGI Conc. per Cell Lines [26]: 3.30 µM
GI50 [27]: 3.15 µM
GI50 ([28]; Homo sapiens, average sensitivity of all cell lines of the Renal cancer subpanel, read-out: GI50 Subpanel MID b): 2.87 µM
GI50 Selectivity Ratio (MID a/MID b) ([28]; Renal cancer subpanel): 0.98
